This is an account of results in patent US20220195481A1, “MITOCHONDRIAL RESPIROMETRY IN FROZEN SPECIMENS” (The Regents of the University of Califormia, priority 2019, published 2022).

Square brackets hold non-standard residues; d marks the D form. Peptide text beside a SMILES is read from it. Phe(ol) = N[C@H](CO)Cc1ccccc1; Aib = CC(C)(N)C(=O)O

The subject of one test is SH-SY5Y cells. The test can be described thus: Respirometry (oxygen consumption rate, Seahorse XF96) in frozen SH-SY5Y cells. The class given is cell-based, human. As to conditions: MAS supplemented with 10 μg/mL Alamethicin and 100 μg/mL cytochrome c vs MAS alone; FIG. 8. The procedure: (§1) All procedures are performed at 4° C. All equipment, solutions, and consumables are pre-chilled. • 1. Re-suspend sample in 20 μL MAS buffer. Load 5 technical replicates of each condition. Leave at least 4 empty wells to determine background signal. • 2. To adhere mitochondrial particles to the bottom of the plate, centrifuge the loaded plate at 2,000×g for 5 min at 4° C. using plate carrier rotating buckets. […] After centrifugation, adjust the total volume of the wells to 150 uL by adding 130 uL MAS assay buffer per well. Supplement MAS buffer with 1-200 μg/mL cytochrome c and 1-500 μg/mL Alamethicin if maximal respiration is not reached on MAS alone. To avoid disrupting mitochondrial adherence to the bottom of the plate, add MAS using multichannel pipette pointed at a 45° angle to the top of well chamber, as instructed by the manufacturer. • 4. Incubate the plate at 37° C. in a non-CO2 incubator for 5 minutes. • 5. Insert plate into XF96 and begin assay protocol. Measure oxygen consumption rate (OCR) before and after every injection. Mix, wait, and measure times can vary between 1-7 minutes and 1-5 repetitions.
1. SH-SY5Y cells were cultured according to ATCC instructions. 2. When the cells reached 80% confluency, they were trypsinized, counted, spun down, washed in PBS, and frozen. 3. Cells were thawed on ice and re-suspended in MAS. 4. […]

For test [1], the system named is frozen murine liver tissue homogenate. The test can be described thus: Respirometry (oxygen consumption rate, Seahorse XF96) in frozen murine liver homogenate. The settings on record: MAS supplemented with 100 μg/mL cytochrome c vs MAS alone; NADH and TMPD/Ascorbate injections; FIG. 3. The procedure: as §1
1. Homogenate was prepared from previously frozen murine liver tissue in MAS using glass/Teflon dounce homogenizer. The preparation was centrifuged at 1,000×g for 5 minutes at 4° C. and the supernatant transferred to a new tube. 2. […]

Turning to `CC(=O)NC(C)(C)C(=O)N1CCC[C@H]1C(=O)NC(C)(C)C(=O)N[C@@H](C)C(=O)NC(C)(C)C(=O)N[C@@H](C)C(=O)N[C@@H](CCC(N)=O)C(=O)NC(C)(C)C(=O)N[C@H](C(=O)NC(C)(C)C(=O)NCC(=O)N[C@@H](CC(C)C)C(=O)NC(C)(C)C(=O)N1CCC[C@H]1C(=O)N[C@H](C(=O)NC(C)(C)C(=O)NC(C)(C)C(=O)N[C@@H](CCC(=O)O)C(=O)N[C@@H](CCC(N)=O)C(=O)N[C@H](CO)Cc1ccccc1)C(C)C)C(C)C` [Alamethicin] (Ac-[Aib]P[Aib]A[Aib]AQ[Aib]V[Aib]GL[Aib]PV[Aib][Aib]EQ[Phe(ol)]), in the test on SH-SY5Y cells, the “respiration in frozen cultured human bone marrow neuroblastoma cell line” value is on record as “Enhances Respiration”. In the case of cytochrome c, the “respiration in frozen tissue homogenates” value in test [1] is “enhances respiration”.
